In the assay the target is T1, Pif1^238–780 (Saccharomyces cerevisiae, UniProt P07271).
T1 sequence (P07271 238-780): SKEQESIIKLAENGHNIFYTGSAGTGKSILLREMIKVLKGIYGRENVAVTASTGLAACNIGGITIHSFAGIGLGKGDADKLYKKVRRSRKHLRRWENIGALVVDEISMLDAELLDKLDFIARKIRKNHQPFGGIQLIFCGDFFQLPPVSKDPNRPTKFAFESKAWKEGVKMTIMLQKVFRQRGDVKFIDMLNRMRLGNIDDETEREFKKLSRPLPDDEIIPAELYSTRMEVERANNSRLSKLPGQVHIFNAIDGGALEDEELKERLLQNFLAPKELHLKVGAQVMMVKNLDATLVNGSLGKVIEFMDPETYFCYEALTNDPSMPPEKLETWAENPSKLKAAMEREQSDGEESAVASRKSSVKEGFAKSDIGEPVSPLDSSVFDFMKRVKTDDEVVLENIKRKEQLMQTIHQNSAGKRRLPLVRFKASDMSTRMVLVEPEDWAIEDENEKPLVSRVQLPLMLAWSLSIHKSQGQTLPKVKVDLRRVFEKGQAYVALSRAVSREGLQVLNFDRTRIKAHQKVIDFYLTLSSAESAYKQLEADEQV
Description: ssDNA-dependent ATPase. The class given is biochemical.

Structures are written as SMILES.

In the case of `Nc1ncnc2c1ncn2[C@@H]1O[C@H](COP(=O)(O)OP(=O)(O)OP(=O)(O)O)[C@@H](O)[C@H]1O` [ATP], the KATP entry was “does not have major effects on the DNA-dependent ATPase activity and the KATP (Figure S1)”.

These data come from paper PMC4826290 (Journal of molecular biology, 2016).
